From US6123959A, “Aqueous composition comprising active ingredients for the de-pigmentation of the skin” (Univera Pharmaceuticals, Inc., priority 1998, dated 2000)
Like-named read-outs stand apart in the source and are kept apart here. One block for each compound: values may come before it.

Legend:
tyrosinase [1] = assay: inhibitory effect on tyrosinase of octylaloesin compared to aloesin; format: biochemical
skin = conditions: cited from earlier work; for quantity required to achieve a similar effect, compared to hydroquinone: relative to quantity of hydroquinone used
tyrosinase [2] = conditions: cited from earlier work
tyrosinase [3] = conditions: cited from earlier work; for mode of tyrosinase inhibition: Lineweaver Burk diagram
tyrosinase [4] = assay: in vitro tyrosinase inhibition assay (L-Dopa conversion to dopachrome, absorption at 475 nm); format: biochemical; conditions: pH 6.8
Description: An in vitro tyrosinase inhibition assay was carried out using a modification of the procedure described by Pomerantz […] J. Biol. Chem. 238:2351-2357. According to this method, the conversion of L-Dopa, a substrate of tyrosinase, into dopaquinone and then dopachrome is followed by monitoring absorption at 475 nm in a spectrophotometer. As the colored substance dopachrome absorbs light having a wavelength of 475 nm, a quantitative measurement of the time-related conversion and thus the activity of tyrosinase can be made.
Each sample was prepared in a 50 mM potassium phosphate buffer which had been adjusted to pH 6.8, and stabilized by the addition of 10% DMSO. Tyrosinase (48 u, "u" represents the activity units of an enzyme, measured in mM substratum conversion per minute) was added to each sample. A double assessment was carried out for each inhibitor, using two different starting concentrations of L-Dopa: 0.4 mM and 0.2 mM. Controls were also run using the same concentrations of uninhibited tyrosinase to serve as the neutral value. In the control samples the volume of inhibitor was replaced with 50 mM potassium phosphate buffer. The time-related difference in absorption, and thus the conversion of L-Dopa, was followed for a period of two minutes.
The conversion kinetics of the tyrosinase was measured upon addition of the following concentrations of inhibitor: arbutin (0.9 mM); aloesin (0.0192 mM; 0.0385 mM and 0.0769 mM) and with the respective combination of both of the inhibitors. Enzyme inhibition was determined from the difference between the inhibited and the uninhibited kinetics. It is worth noting that the compositions examined in this example contain no liposomes, as the penetration ability and bio-availability are of no significance in an in vitro test. The purpose of these in vitro studies was to determine the efficacy of the inhibitors (arbutin and aloesin) individually and combinations thereof.

synthesis of melanin = conditions: cited from earlier work

Compound: CCCCCCCCOc1cc(C)c2c(=O)cc(CC(C)=O)oc2c1[C@@H]1O[C@H](CO)[C@@H](O)[C@H](O)[C@H]1O [octylaloesin]
inhibitory effect on tyrosinase compared to aloesin (tyrosinase [1]): significantly higher inhibitory effect on tyrosinase

Compound: Oc1ccc(O)cc1 [hydroquinone]
side effects (skin; applied over long periods of time): serious side effects | photosensitivity of the skin (skin; exposed to UV light): increased photosensitivity | de-pigmentation (persistence) (skin; in vivo): permanent de-pigmentation

Compound: O=c1cc(CO)occ1O [kojic acid]
mode of tyrosinase inhibition (tyrosinase [2]): competitive inhibitors

% Inhibition Tyrosinase (tyrosinase [4]; aloesin 0.0192 mM): 20% | % Inhibition Tyrosinase (tyrosinase [4]; aloesin 0.0385 mM): 32% | % Inhibition Tyrosinase (tyrosinase [4]; aloesin 0.0769 mM): 46%
Compound: CC(=O)Cc1cc(=O)c2c(C)cc(O)c([C@@H]3O[C@H](CO)[C@@H](O)[C@H](O)[C@H]3O)c2o1 [aloesin]
mode of tyrosinase inhibition (tyrosinase [3]): non-competitive inhibitors | inhibition of tyrosinase (tyrosinase [3]): effective inhibitors of tyrosinase

Compound: O=C1O[C@H]([C@@H](O)CO)C(O)=C1O [ascorbic acid]
mode of tyrosinase inhibition (tyrosinase [2]): competitive inhibitors | quantity required to achieve a similar effect, compared to hydroquinone (skin): 17 times

Compound: COc1cc(/C=C/C(=O)O[C@@H]2[C@@H](O)[C@H](O)[C@@H](CO)O[C@H]2c2c(O)cc(C)c3c(=O)cc(CC(C)=O)oc23)ccc1O [2"-O-feruloylaloesin]
mode of tyrosinase inhibition (tyrosinase [3]): non-competitive inhibitors | inhibition of tyrosinase (tyrosinase [3]): effective inhibitors of tyrosinase

Compound: CC/C=C\C/C=C\C/C=C\CCCCCCCC(=O)O [linolenic acid]
inhibition of the synthesis of melanin (synthesis of melanin): inhibit the synthesis of melanin

% Inhibition Tyrosinase (tyrosinase [4]; arbutin 0.9 mM): 29%
Compound: OC[C@H]1O[C@@H](Oc2ccc(O)cc2)[C@H](O)[C@@H](O)[C@@H]1O [arbutin]
mode of tyrosinase inhibition (tyrosinase [2]): competitive inhibitors | quantity required to achieve a similar effect, compared to hydroquinone (skin): over 100 times
